Assays:
Ras farnesyl transferase = molecular target: T1, Ras farnesyl transferase (Homo sapiens, UniProt P49354+P49356); test: Ras farnesyl transferase inhibiting activity (filter-binding, tritium-farnesylpyrophosphate, Ras-CVLS substrate); format: biochemical; conditions: recombinant Ras farnesyl transferase, 30 minutes at 37° C., read-out: Ftase IC50
T1 construct: made in house
Protocol: The enzyme reaction was performed in 50 μl of 50 mM Sodium HEPES buffer solution containing 25 mmol of potassium chloride. 25 mmol of magnesium chloride, 10 mmol of DTT and 50 μmol of zinc chloride. 1.5 μmol of Ras substrate protein, 0.15 μmol of tritium-farnesylpyrophosphate and 4.5 nmol of farnesyl transferase were used.
More specifically, in the initial step, farnesyl transferase was added to the above buffer solution, reaction was maintained for 30 minutes at 37° C. and then the reaction was stopped by adding 1 ml of ethanol solution containing 1M HCl. The formed precipitates were adsorbed to GF/B filter using Hopper harvestor(Hopper #225V) for filter-binding, washed with ethanol, and then radioactivity of the dried filter was measured using LKB β counter. Enzyme titer was measured in the unsaturated state of substrate where the concentrations of Ras substrate protein and farnesyl transferase have quantitative relationship. Enzyme inhibiting activity was measured using less than 5% of total reaction solution of the compound according to the present invention dissolved in dimethylsulfoxide(DMSO) solution as a reagent. Enzyme inhibiting activity was represented by percentage of the amount of the farnesyl incorporated with the reagent to that without the reagent.

[1] = test system: intracellular Ras farnesyl transferase, Rat2 cell line; test: Intracellular Ras farnesyl transferase inhibiting activity in transformed Rat2 cells (35S-methionine labelling, Y13-259 immunoprecipitation, SDS-PAGE); format: cell-based; conditions: Rattus norvegicus; transformed Rat2 fibroblast cell line; concentration inhibiting 50% of farnesyl binding of Ras protein; read-out: Ftase CIC50
Protocol: In the present experiment, Rat2 cell line which expresses C-Harvey-Ras protein having transforming activity and Rat2 cell line(Korean patent application No. 97-14409) which is transformed with fused protein of H-Ras substituted with polybasic lysine domain at C-terminus of K-Ras were used. The experiment was performed by the modified Declue's method(Declue. J. E. et al., Cancer Research, 1991. 51, 712). Hereinafter, the experimental method will be described in more detail.
3×10^5 cells of transformed Rat2 fibroblast cell line were sprayed on 60 mm cell cultivation dish and cultivated for 48 hours in a cell incubator at 37° C. and after 50% or more of density was reached, it was treated with a reagent. The compound according to the present invention dissolved in dimethylsulfoxide(DMSO) was used as the reagent. 1% of dimethylsulfoxide was used in both control and experimental groups. After 4 hours from the treatment of the reagent, methionine labeled with 150 μCi of radioactive isotope, ^35S per 1 ml of medium, was added and after cultivating for 20 hours, the cells were washed with physiological saline water. The cells were lysed using 1 ml of cool cell lysis buffer solution(50 mM of Sodium Herpiss buffer solution containing 5 mmol of magnesium chloride. 1 mmol of DTT, 1% NP 40, 1 mmol of EDTA, 1 mmol of PMSF, 2 μmol of leupeptin, 2 μmol of pepstatin A and 2 μmol of antipain) and the supernatant was obtained by high-velocity centrifugation of 12,000 g×5 minutes. The amount of the labeled radioisotope of the supernatent was measured and standardized to obtain a quantitative result in immunoprecipitation reaction and then. Y13-259, monoclonal antiboby specifically binding to Ras protein(Furth, M. E. et al., J. Virol, 1982, 43, 294) was added and reacted for 15 hours at 4° C. Protein A bound to goat anti-murine Immunoglobulin antibody-agarose suspension was added to the solution and reacted for 1 hour at 4° C. and then, to remove unspecific binding product, immunoprecipitates were washed with buffer solution(50 mM Tris chloride buffer solution containing 50 mmol of sodium chloride, 0.5% of sodium dioxycolate, 0.5% of NP 40 and 0.1% of SDS). The precipitates were boiled in reagent buffer solution for electrophoresis and then, electrophoresis was performed using 13.5% of SDS polyacrylamide gel. After electrophoresis, the gel was fixed and dried. Then, the gel was exposed to X-ray film, developed and printed. From the result of the experiment, intensities of band of protein with and without farnesyl of Ras protein were measured, and the concentration of reagent inhibiting 50% of farnesyl binding was defined as CIC50, an intracellular Ras farnesyl transferase inhibiting activity.

[2] = molecular target: T2, Geranylgeranyl transferase (Bos taurus, UniProt P29702+Q5EAD5); test: Geranylgeranyl transferase inhibiting activity (geranylgeranyl pyrophosphate, Ras-CVIL substrate); format: biochemical; conditions: geranylgeranyl transferase purified from bovine brain, read-out: GGtase IC50
T2 construct: Geranylgeranyl transferase was purified from bovine brain; from tissue; host or cells: bovine brain
Protocol: To evaluate the selective enzyme inhibiting activity of the compound according to the present invention, inhibiting activity on geranylgeranyl transferase was measured. Geranylgeranyl transferase was purified from bovine brain with the method modified from Schber's method(Schber et al., J. Biol. Chem. 1990, 265, 14701). and substantially the same experiment as that of farnesyl transferase was performed using geranylgeranyl pyrophosphate and Ras-CVIL substrate protein under the similar condition to farnesyl transferase reaction.

Row | Compound | IC50 (Ras farnesyl transferase) [µM] | IC50 [1] [µM] | IC50 [2] [µM]
1 | CC1(c2cccc3ccccc23)C(=O)N(CCCn2ccnc2)C(=O)N1CC(=O)NC1(C#N)CCOCC1 (stereo not drawn) [Compound 67, N-(4-cyano-tetrahydropyran-4-yl)-2-[3-(3-imidazol-1yl-propyl)-5-methyl-5-naphthalen-1-yl-2,4-dioxo-imidazolidin-1-yl]-acetamide] | 3.6 | < 20 | > 10
2 | CN1C(=O)N(CCCc2cncn2Cc2ccc(Br)cc2)C(=O)C1(C)c1cccc2ccccc12 (stereo not drawn) [Compound 69, 3-{3-[3-(4-bromo-benzyl)-3H-imidazol-4-yl]-propyl}-1,5-di-methyl-5-naphthalen-1-yl-imidazolidin-2,4-dione] | 0.3 | < 20 | > 10
3 | CSCCC(NC(=O)CN1C(=O)N(CCCn2ccnc2)C(=O)C1(C)c1cccc2ccccc12)C(=O)O (stereo not drawn) [Compound 14, 2-{2-[3-(3-imidazol-1-yl-propyl)-5-methyl-5-naphthalen-1-yl-2,4-dioxo-imidazolidin-1-yl]-acetylamino}-4-methylsulfanyl-butyric acid] | 0.001 | < 20 | > 10
4 | CCOC(=O)CN1C(=O)N(CCCc2cncn2Cc2ccc(Br)cc2)C(=O)C1(C)c1cccc2ccccc12 (stereo not drawn) [Compound 70, (3-{3-[3-(4-bromo-benzyl)-3H-imidazol-4-yl]-propyl}-5-methyl-5-naphthalen-1-yl-2,4-dioxo-imidazolidin-1-yl)-acetic acid ethyl ester] | 5 | < 20 | > 10
5 | CC1(c2cccc3ccccc23)C(=O)N(CCCn2ccnc2)C(=O)N1Cc1ccc(C#N)cc1 (stereo not drawn) [Compound 33, 4-[3-(3-imidazol-1-yl-propyl)-5-methyl-5-naphthalen-1-yl-2,4-dioxo-imidazolidin-1-ylmethyl]-benzonitrile] | 1.3 | < 20 | > 10
6 | CC1(c2cccc3ccccc23)C(=O)N(CCCn2ccnc2)C(=O)N1Cc1ccc(CNS(C)(=O)=O)cc1 (stereo not drawn) [Compound 37, N-{4-[3-(3-imidazol-1-yl-propyl)-5-methyl-5-naphthalen-1-yl-2,4-dioxo-imidazolidin-1-ylmethyl]-benzyl}-methanesulfonamide] | 0.35 | < 20 | > 10
7 | CN1C(=O)N(Cc2cncn2Cc2ccc(C#N)cc2)C(=O)C1(C)c1cccc2ccccc12 (stereo not drawn) [Compound 60, 4-[5-(3-methyl-4-methyl-4-naphthalen-1-yl-2,5-dioxo-imidazolidin-1-ylmethyl)-imidazol-1-ylmethyl]-benzonitrile] | 0.16 | < 20 | > 10
8 | O=C1CN(c2cccc3ccccc23)C(=O)N1Cc1cncn1Cc1ccc(Cl)cc1 [Compound 73, 3-[3-(4-chloro-benzyl)-3H-imidazol-4-ylmethyl]-1-naphthalen-1-yl-imidazolidin-2,4-dione] | 0.8 | < 10 | > 10
9 | CC1(c2cccc3ccccc23)C(=O)N(CCCn2ccnc2)C(=O)N1Cc1ccc(C(=O)O)cc1 (stereo not drawn) [Compound 39, 4-[3-(3-imidazol-1-yl-propyl)-5-methyl-5-naphthalen-1-yl-2,4-dioxo-imidazolidin-1-ylmethyl]-benzoic acid] | 0.2 | < 20 | > 10
10 | COC(=O)[C@H](CCSC)NC(=O)CC1C(=O)N(Cc2cncn2Cc2ccc(C#N)cc2)C(=O)N1Cc1cccc2ccccc12 (stereo partly drawn) [Compound 85, (2S)-(2-{1-[3-(4-cyano-benzyl)-3H-imidazol-4-ylmethyl]-3-naphthalen-1-ylmethyl-2,5-dioxo-imidazolidin-4-yl}-acetamino)-4-methylsulfanyl-butyric acid methyl ester] | 0.2 | < 50 | > 10
11 | CSCc1ccc(CN2C(=O)N(CCCn3ccnc3)C(=O)C2(C)c2cccc3ccccc23)cc1 (stereo not drawn) [Compound 27, 3-(3-imidazol-1-yl-propyl)-1-(4-methylsulfanylmethyl-benzyl)-5-methyl-5-naphthalen-1-yl-imidazolidin-2,4-dione] | 0.21 | < 20 | > 10
12 | CC1(c2cccc3ccccc23)NC(=O)N(CCCc2cncn2Cc2ccc(Br)cc2)C1=O (stereo not drawn) [Compound 68, 3-{3-[3-(4-bromo-benzyl)-3H-imidazol-4-yl]-propyl}-5-methyl-5-naphthalen-1-yl-imidazolidin-2,4-dione] | 5 | < 20 | > 10
13 | CSCCC(NC(=O)CN1C(=O)N(CCCc2c[nH]cn2)C(=O)C1(C)c1cccc2ccccc12)C(=O)O (stereo not drawn) [Compound 2, 2-(2-{3-[3-(1H-imidazol-4-yl)-propyl]-5-methyl-5-naphthalen-1-yl-2,4-dioxo-imidazolidin-1-yl}-acetylamino)-4-methylsulfanyl-butyric acid] | 0.0008 | 5 | 3.4
14 | CN1CCN(C(=O)C[C@H]2C(=O)N(Cc3cncn3Cc3ccc(C#N)cc3)C(=O)N2Cc2cccc3ccccc23)CC1 [Compound 84, 4-((5S)-{4-[2-(4-methyl-piperazin-1-yl)-2-oxo-ethyl]-3-naphthalen-1-ylmethyl-2,5-dioxo-imidazolidin-1-ylmethyl}-imidazol-1-ylmethyl)-benzonitrile] | 0.12 | < 20 | > 10
15 | CSCCC(NC(=O)CN1C(=O)N(CCn2ccnc2)C(=O)C1(C)c1cccc2ccccc12)C(=O)O (stereo not drawn) [Compound 15, 2-{2-[3-(2-imidazol-1-yl-ethyl)-5-methyl-5-naphthalen-1-yl-2,4-dioxo-imidazolidin-1-yl]-acetylamino}-4-methylsulfanyl-butyric acid] | 0.002 | < 20 | > 10
16 | COC(=O)c1ccc(CN2C(=O)N(CCCn3ccnc3)C(=O)C2(C)c2cccc3ccccc23)cc1 (stereo not drawn) [Compound 38, 4-[3-(3-imidazol-1-yl-propyl)-5-methyl-5-naphthalen-1-yl-2,4-dioxo-imidazolidin-1-ylmethyl]-benzoic acid methyl ester] | 0.25 | < 20 | > 10
17 | CC1(c2cccc3ccccc23)C(=O)N(CCCn2ccnc2)C(=O)N1Cc1ccc(S(C)(=O)=O)cc1 (stereo not drawn) [Compound 28, 3-(3-imidazol-1-yl-propyl)-1-(4-methylsulfonyl-benzyl)-5-methyl-5-naphthalen-1-yl-imidazolidin-2,4-dione] | 1.1 | < 20 | > 10
18 | CC1(c2cccc3ccccc23)C(=O)N(Cc2cncn2Cc2ccc(C#N)cc2)C(=O)N1Cc1cccc(C#N)c1 (stereo not drawn) [Compound 63] | 0.05 | < 20 | > 10
19 | COCCN(C)C(=O)CC1C(=O)N(Cc2cncn2Cc2ccc(Br)cc2)C(=O)N1Cc1cccc2ccccc12 (stereo not drawn) [Compound 83, 2-{1-[3-(4-bromo-benzyl)-3H-imidazol-4-ylmethyl]-3-naphthalen-1-ylmethyl-2,5dioxo-imidazolidin-4-yl}-N-(2-methoxy-ethyl)-N-methyl-acetamide] | 1.5 | > 50 | > 10
